This note sets out measurements from patent publication US20180185520A1, “COLLAGEN IMAGING COMPOSTIONS” (Collagen Medical, LLC, priority 2015, published 2018).

The target in test [1] is T1, Canine collagen (Native canine Collagen Type I and III protein) (Canis lupus familiaris, UniProt O46392+Q9XSJ7).
T1 construct: purchased YO protein AB 739
Nature of the test: Collagen binding assay, dried canine collagen in microtiter plate. To be noted: 37° C., pH 7.4; read-out: Collagen Binding Dog (Kd). The procedure:
Canine collagen (Native canine Collagen Type I and III protein, YO protein AB, cat#739) is dissolved in 0.5 M acetic acid at 3.3 mg/ml by vortexing and shaking overnight at 4° C. The solution is then dialyzed against 10 mM Phosphate (NaH2PO4), pH 4.2 at 4° C. with three changes of the dialysis buffer.
Ice-cold 1×PBS pH 10.8 is added to the collagen solution for a final collagen concentration of 10 μM, pH 7.4. Collagen solutions are gelled and dried down in the wells of a 96 well microtiter plate (Corning Polystyrene Flat Bottom, cat#3641). 70 μl of 10 μM collagen is aliquoted into each well in every other lane in the plate (48 wells) and the plate is incubated at 37° C. for 18 hours to form a gel and evaporate to dryness. […] The final well content of gelled collagen is measured by determination of hydroxyproline and is around 180 μg/ml.
(§1) a serial dilution of 0.2 μM-30 μM of the peptide chelate is prepared in PBS, pH 7.4 ([…], of solution for each concentration). […] The concentration of free, unbound compound in the sample supernatants and the concentration of compound in the reserved (total) sample are determined by ICP-MS (Agilent 7500, gadolinium concentration). The concentration of compound bound to collagen is determined as [bound]=[total]−[unbound].
(§2) The binding of compounds to human, rat and dog collagen (5 μM) was measured over the concentration range 0.2-5 μM of Comp ID Nos.: 1-4. […]

For another test, the target named is T2, human type I collagen (Homo sapiens, UniProt P02452+P08123).
T2 construct: purchased Advanced Biomatrix 5007-A
Nature of the test: Collagen binding assay, dried human collagen in microtiter plate. The following applies: 37° C., pH 7.4. The procedure: 10 ml of a solution of 3 mg/ml of human type I collagen (VitroCol solution, Advanced Biomatrix, cat#5007-A) is dialyzed against 10 mM Phosphate (NaH2PO4), pH 4.2 at 4° C. with three changes of the dialysis buffer. The protein concentration is determined by liquid chromatography determination of hydroxyproline (P. Hutson, J. Chromatogr. B, 791 (2003) 427-430).
Ice-cold 1×PBS pH 10.8 is added to the collagen solution for a final collagen concentration of 10 μM, pH 7.4. Collagen solutions are gelled and dried down in the wells of a 96 well microtiter plate (Corning Polystyrene Flat Bottom, cat#3641). […] The final well content of gelled collagen is measured by determination of hydroxyproline and is around 180 μg/ml.
as §1, §2

Test [2] concerns the target rat collagen (acid soluble, type I, rat tail, Millipore Inc, cat#08-115) (rat) (UniProt P02454). As to the kind of experiment: dried collagen film in microtiter plate; unbound compound by ICP-MS (Gd); fit to 1 binding site.

Bridge positions count the residues as written; N and C are the ends. Square brackets hold non-standard residues; d marks the D form. Primed or numbered codes have the meaning given here. Ends that are not written are not given here. Peptide text beside a SMILES is read from it. * marks the point of attachment. X1 = O=C(O)CN1CCN(CC(=O)O)CCN([C@H](CCC(=O)*)C(=O)O)CCN(CC(=O)O)CC1; GdDOTAGA″ = gadolinium DOTAGA chelate, amide-bonded; Bip = N[C@@H](Cc1ccc(-c2ccccc2)cc1)C(=O)O

T2 sequence (P02452 162-1218 limits assumed): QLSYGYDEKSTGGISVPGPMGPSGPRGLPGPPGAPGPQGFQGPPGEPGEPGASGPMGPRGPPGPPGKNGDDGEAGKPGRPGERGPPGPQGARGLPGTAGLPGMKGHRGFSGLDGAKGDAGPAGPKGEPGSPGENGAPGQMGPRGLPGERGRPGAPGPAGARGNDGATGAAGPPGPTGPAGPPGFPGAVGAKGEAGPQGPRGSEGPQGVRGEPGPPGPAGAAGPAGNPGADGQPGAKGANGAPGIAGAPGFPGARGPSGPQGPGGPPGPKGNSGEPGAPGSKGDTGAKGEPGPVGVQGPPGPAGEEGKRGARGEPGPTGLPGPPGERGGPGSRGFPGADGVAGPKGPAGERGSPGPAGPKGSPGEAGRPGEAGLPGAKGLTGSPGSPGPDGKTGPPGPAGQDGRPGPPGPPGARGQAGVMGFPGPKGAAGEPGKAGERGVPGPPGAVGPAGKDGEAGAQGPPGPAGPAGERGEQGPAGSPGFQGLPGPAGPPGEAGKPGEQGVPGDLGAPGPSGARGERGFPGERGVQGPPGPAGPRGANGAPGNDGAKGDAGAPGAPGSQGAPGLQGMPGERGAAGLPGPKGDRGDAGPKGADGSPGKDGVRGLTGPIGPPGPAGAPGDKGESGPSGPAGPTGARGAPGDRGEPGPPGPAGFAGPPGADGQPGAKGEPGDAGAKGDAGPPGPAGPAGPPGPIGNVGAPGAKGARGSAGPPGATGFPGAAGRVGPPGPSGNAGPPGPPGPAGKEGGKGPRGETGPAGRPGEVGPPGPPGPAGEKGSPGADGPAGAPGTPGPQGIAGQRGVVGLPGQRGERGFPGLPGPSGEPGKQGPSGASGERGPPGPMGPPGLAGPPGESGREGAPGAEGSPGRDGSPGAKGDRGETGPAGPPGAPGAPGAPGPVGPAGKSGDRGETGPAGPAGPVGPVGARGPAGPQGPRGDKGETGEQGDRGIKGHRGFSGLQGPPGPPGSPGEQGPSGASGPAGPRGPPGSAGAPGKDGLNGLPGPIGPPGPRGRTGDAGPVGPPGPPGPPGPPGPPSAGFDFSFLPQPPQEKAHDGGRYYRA
T2 sequence (P08123 80-1119 limits assumed): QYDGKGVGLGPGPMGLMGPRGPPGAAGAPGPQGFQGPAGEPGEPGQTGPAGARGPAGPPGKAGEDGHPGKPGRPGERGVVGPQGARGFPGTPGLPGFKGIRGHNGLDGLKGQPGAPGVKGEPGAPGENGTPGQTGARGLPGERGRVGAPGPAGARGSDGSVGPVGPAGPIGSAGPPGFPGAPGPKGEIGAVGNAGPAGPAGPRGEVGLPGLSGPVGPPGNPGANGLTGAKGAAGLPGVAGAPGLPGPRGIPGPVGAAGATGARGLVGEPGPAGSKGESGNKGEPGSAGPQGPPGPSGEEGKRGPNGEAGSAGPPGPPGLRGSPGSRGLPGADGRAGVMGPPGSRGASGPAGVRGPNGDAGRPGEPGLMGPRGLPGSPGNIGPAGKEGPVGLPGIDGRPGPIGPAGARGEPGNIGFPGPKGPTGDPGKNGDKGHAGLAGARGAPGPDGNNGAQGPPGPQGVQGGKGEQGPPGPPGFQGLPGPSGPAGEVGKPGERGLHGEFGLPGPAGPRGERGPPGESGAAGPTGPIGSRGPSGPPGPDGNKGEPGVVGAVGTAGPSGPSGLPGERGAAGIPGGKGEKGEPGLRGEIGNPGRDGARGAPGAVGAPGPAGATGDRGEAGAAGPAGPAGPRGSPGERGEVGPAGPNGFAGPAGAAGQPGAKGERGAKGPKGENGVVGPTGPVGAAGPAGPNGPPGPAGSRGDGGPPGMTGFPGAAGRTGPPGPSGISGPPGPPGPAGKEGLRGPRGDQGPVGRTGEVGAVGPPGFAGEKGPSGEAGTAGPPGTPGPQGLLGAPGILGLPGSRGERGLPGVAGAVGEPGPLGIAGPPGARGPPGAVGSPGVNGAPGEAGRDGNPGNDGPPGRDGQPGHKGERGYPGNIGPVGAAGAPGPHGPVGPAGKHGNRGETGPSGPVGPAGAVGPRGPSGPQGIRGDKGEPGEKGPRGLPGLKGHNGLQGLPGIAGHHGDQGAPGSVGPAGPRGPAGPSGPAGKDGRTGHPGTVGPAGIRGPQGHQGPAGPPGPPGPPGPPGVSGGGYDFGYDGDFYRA
T1 sequence (Q9XSJ7 158-1214 limits assumed): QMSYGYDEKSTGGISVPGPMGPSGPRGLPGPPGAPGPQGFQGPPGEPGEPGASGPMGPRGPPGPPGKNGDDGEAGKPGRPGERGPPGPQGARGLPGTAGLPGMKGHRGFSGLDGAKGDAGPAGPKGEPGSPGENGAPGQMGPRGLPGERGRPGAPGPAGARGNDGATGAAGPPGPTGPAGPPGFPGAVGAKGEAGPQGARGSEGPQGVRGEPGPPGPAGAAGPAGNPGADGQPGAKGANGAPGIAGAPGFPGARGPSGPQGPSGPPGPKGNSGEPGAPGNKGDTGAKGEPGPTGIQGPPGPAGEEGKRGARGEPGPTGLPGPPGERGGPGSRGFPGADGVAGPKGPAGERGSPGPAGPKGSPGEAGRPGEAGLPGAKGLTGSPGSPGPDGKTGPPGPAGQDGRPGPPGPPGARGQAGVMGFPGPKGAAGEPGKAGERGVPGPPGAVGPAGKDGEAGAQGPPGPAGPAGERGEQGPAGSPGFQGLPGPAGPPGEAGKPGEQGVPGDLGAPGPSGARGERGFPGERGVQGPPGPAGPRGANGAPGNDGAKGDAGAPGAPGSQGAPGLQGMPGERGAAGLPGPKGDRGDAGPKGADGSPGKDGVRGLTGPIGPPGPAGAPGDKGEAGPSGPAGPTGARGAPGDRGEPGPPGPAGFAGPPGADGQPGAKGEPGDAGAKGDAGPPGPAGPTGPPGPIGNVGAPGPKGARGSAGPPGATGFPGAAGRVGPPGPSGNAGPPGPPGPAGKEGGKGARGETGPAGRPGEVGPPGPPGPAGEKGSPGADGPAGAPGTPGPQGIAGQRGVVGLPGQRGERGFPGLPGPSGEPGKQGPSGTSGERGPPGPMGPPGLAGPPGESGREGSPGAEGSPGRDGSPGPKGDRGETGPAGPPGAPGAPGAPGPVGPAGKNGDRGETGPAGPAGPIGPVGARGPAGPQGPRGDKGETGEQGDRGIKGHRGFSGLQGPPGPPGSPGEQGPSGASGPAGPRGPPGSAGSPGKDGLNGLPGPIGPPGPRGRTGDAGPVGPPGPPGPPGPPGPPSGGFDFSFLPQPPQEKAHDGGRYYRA
T1 sequence (O46392 80-1119 limits assumed): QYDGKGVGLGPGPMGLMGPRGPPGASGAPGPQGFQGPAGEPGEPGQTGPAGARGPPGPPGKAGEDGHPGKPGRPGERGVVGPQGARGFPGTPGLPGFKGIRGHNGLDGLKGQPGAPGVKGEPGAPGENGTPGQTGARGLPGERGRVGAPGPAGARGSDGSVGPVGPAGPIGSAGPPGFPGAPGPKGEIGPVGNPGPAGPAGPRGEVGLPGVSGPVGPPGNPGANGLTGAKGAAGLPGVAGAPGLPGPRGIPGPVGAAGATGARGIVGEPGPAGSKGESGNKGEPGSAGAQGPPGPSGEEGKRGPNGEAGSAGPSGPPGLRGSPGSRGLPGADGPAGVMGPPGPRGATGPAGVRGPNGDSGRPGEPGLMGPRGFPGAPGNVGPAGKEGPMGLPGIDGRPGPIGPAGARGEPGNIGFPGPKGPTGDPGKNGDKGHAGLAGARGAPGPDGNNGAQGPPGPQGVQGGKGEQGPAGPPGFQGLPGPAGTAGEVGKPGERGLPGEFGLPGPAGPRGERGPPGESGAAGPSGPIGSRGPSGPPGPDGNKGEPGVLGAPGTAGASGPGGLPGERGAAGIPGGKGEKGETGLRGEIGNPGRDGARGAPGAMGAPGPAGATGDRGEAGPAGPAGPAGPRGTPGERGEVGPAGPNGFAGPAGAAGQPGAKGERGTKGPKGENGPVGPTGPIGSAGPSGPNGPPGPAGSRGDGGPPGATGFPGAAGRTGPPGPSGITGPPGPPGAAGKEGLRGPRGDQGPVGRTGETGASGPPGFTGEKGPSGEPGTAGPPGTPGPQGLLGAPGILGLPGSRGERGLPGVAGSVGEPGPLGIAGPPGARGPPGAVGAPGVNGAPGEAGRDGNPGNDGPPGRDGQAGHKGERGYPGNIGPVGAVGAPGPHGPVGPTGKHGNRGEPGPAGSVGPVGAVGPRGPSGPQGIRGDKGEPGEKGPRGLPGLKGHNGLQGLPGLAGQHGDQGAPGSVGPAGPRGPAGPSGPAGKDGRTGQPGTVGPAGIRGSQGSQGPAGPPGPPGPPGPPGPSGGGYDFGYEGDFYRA

Broadly, the Kd is a measure of binding affinity in units of concentration. `CC(C)[C@H](NC(=O)[C@@H]1CSSC[C@H](NC(=O)[C@H](Cc2c[nH]cn2)NC(=O)[C@H](Cc2c[nH]c3ccccc23)NC(=O)[C@H](CCCCNC(=O)CC[C@H](C(=O)O)N2CCN(CC(=O)O)CCN(CC(=O)O)CCN(CC(=O)O)CC2)NC(=O)CC[C@H](C(=O)O)N2CCN(CC(=O)O)CCN(CC(=O)O)CCN(CC(=O)O)CC2)C(=O)N[C@@H](Cc2ccc(O)cc2)C(=O)N[C@@H]([C@@H](C)O)C(=O)N[C@@H](CCCCNC(=O)CC[C@H](C(=O)O)N2CCN(CC(=O)O)CCN(CC(=O)O)CCN(CC(=O)O)CC2)C(=O)N[C@@H](Cc2ccccc2)C(=O)N2CCC[C@H]2C(=O)N[C@@H](Cc2c[nH]cn2)C(=O)N[C@@H](Cc2c[nH]cn2)C(=O)N[C@@H](Cc2ccc(O)cc2)C(=O)N1)C(=O)N[C@@H](Cc1ccc(O)cc1)C(=O)N[C@@H](Cc1ccc(-c2ccccc2)cc1)C(N)=O` [Compound ID No. 4] (X1-K(X1)WHCYTK(X1)FPHHYCVY[Bip]-NH2; disulfide 4-13): in test [1], the equilibrium dissociation constant (Kd) amounted to 2 µM.
Molecule `CC(C)C[C@H](NC(=O)[C@@H]1CSSC[C@H](NC(=O)[C@H](Cc2c[nH]cn2)NC(=O)[C@H](Cc2c[nH]c3ccccc23)NC(=O)[C@H](Cc2ccc(O)cc2)NC(=O)[C@H](CCCCNC(=O)CC[C@H](C(=O)O)N2CCN(CC(=O)O)CCN(CC(=O)O)CCN(CC(=O)O)CC2)NC(=O)CC[C@H](C(=O)O)N2CCN(CC(=O)O)CCN(CC(=O)O)CCN(CC(=O)O)CC2)C(=O)N[C@@H]([C@@H](C)O)C(=O)N[C@@H]([C@@H](C)O)C(=O)N[C@@H](CCCCNC(=O)CC[C@H](C(=O)O)N2CCN(CC(=O)O)CCN(CC(=O)O)CCN(CC(=O)O)CC2)C(=O)N[C@@H](Cc2ccccc2)C(=O)N2CCC[C@H]2C(=O)N[C@@H](Cc2c[nH]cn2)C(=O)N[C@@H](Cc2c[nH]cn2)C(=O)N[C@@H](Cc2ccc(O)cc2)C(=O)N1)C(=O)N[C@@H](Cc1ccc(O)cc1)C(=O)N[C@@H](Cc1ccc(-c2ccccc2)cc1)C(N)=O` [Compound ID No. 3] (X1-K(X1)YWHCTTK(X1)FPHHYCLY[Bip]-NH2; disulfide 5-14) had a Kd on human type I collagen of 29.8 µM.
Take {GdDOTAGA″}-K(GdDOTAGA″)WHCTTK(GdDOTAGA″)FPHHYCLY[Bip]-NH2 (disulfide 4-13) [Compound ID No. 2]: in test [2], the Kd worked out at 20.6 µM.

B1: Compound ID No. 4 (peptide)
peptide: KWHCYTKFPHHYCVY[Bip]-NH2
modifications: disulfide 4-13; also: GdDOTAGA on N-terminal nitrogen or Lys epsilon amines, sites not fixed
For the molecule B1, in test [2], the Kd was 4.6 µM.
